Test results from ChEMBL document CHEMBL5380795, “Design, Synthesis, and Bioactivity Investigation of Cyclic Lipopeptide Antibiotics Containing Eight to Nine Amino Acids” (J Med Chem, 2023).
In brackets after ≈: the same amount, converted by molar mass. Activity calls are given as the source filed them. No cut-off for these calls is given here.

Assays:
Escherichia coli [1] = assay: Potentiation of rifampicin induced antibacterial activity in Escherichia coli ATCC 25922 assessed as rifampicin MIC at 0.015 ug/ml incubated for 18 to 24 hrs by broth microdilution method (reference value: 2 ug/ml); format: functional; settings: dose 0.015 µg/ml, time 18-24 hrs
Staphylococcus aureus [2] = assay: Antibacterial activity against Staphylococcus aureus ATCC 29213 assessed as inhibition of bacterial growth incubated for 18 to 24 hrs by broth microdilution method; format: functional; settings: time 18-24 hrs
Lipopolysaccharide (LPS) [3] = assay: Binding affinity to LIP-1 sensor chip immobilized Escherichia coli LPS assessed as dissociation constant measured for 600 secs by SPR analysis
Escherichia coli [4] = assay: Potentiation of rifampicin induced antibacterial activity in Escherichia coli ATCC 25922 assessed as rifampicin MIC at 2 ug/ml incubated for 18 to 24 hrs by broth microdilution method (reference value: 2 ug/ml); format: functional; settings: dose 2 µg/ml, time 18-24 hrs
Lipopolysaccharide (LPS) [5] = assay: Binding affinity to LIP-1 sensor chip immobilized Escherichia coli LPS assessed as increase in resonance units measured for 600 secs by SPR analysis; settings: dose 0.125-4 µM, time 600.0 sec
Escherichia coli [6] = assay: Antibacterial activity against Escherichia coli ATCC 25922 assessed as inhibition of bacterial growth incubated for 18 to 24 hrs by broth microdilution method; format: functional; settings: time 18-24 hrs
Klebsiella pneumoniae = assay: Antibacterial activity against carbapenem resistant Klebsiella pneumoniae clinical isolate 19-17 assessed as inhibition of bacterial growth incubated for 18 to 24 hrs by broth microdilution method; format: functional; settings: time 18-24 hrs
[7] = Acute toxicity in ICR mouse assessed as adverse effects at 8.19 mg/kg, iv administered into tail vein and measured twice daily over 1 week; format: organism-based; settings: in vivo, 168 h, time 1 weeks
[8] = Plasma protein binding in human at 2 uM incubated for 6 hrs by equilibrium dialysis based LC-MS/MS analysis; format: ADME, cell-free; settings: read-out: PPB (converted)
Escherichia coli [9] = assay: Potentiation of rifampicin induced antibacterial activity in Escherichia coli ATCC 25922 assessed as rifampicin MIC at 0.004 ug/ml incubated for 18 to 24 hrs by broth microdilution method (reference value: 2 ug/ml); format: functional; settings: dose 0.004 µg/ml, time 18-24 hrs
Pseudomonas aeruginosa [10] = assay: Antibacterial activity against carbapenem resistant Pseudomonas aeruginosa clinical isolate 19-3 assessed as inhibition of bacterial growth incubated for 18 to 24 hrs by broth microdilution method; format: functional; settings: time 18-24 hrs
Escherichia coli [11] = assay: Potentiation of rifampicin induced antibacterial activity in Escherichia coli ATCC 25922 assessed as rifampicin MIC at 0.125 ug/ml incubated for 18 to 24 hrs by broth microdilution method (reference value: 2 ug/ml); format: functional; settings: dose 0.125 µg/ml, time 18-24 hrs
[12] = system: Staphylococcus epidermidis; assay: Antibacterial activity against methicillin resistant Staphylococcus epidermidis clinical isolate 19-5 assessed as inhibition of bacterial growth incubated for 18 to 24 hrs by broth microdilution method; format: functional; settings: time 18-24 hrs
[13] = Clearance in overnight fasted Sprague-Dawley rat at 4 mg/kg, ip measured for 24 hrs by LC-MS/MS analysis; format: ADME, organism-based; settings: in vivo
Escherichia coli [14] = assay: Potentiation of rifampicin induced antibacterial activity in Escherichia coli ATCC 25922 assessed as rifampicin MIC at 0.25 ug/ml incubated for 18 to 24 hrs by broth microdilution method (reference value: 2 ug/ml); format: functional; settings: dose 0.25 µg/ml, time 18-24 hrs
[15] = system: Staphylococcus epidermidis; assay: Antibacterial activity against methicillin resistant Staphylococcus epidermidis clinical isolate 19-6 assessed as inhibition of bacterial growth incubated for 18 to 24 hrs by broth microdilution method; format: functional; settings: time 18-24 hrs
Escherichia coli [16] = assay: Potentiation of rifampicin induced antibacterial activity in Escherichia coli ATCC 25922 assessed as rifampicin MIC at 4 ug/ml incubated for 18 to 24 hrs by broth microdilution method (reference value: 2 ug/ml); format: functional; settings: dose 4 µg/ml, time 18-24 hrs
[17] = Half life in overnight fasted Sprague-Dawley rat at 4 mg/kg, ip measured for 24 hrs by LC-MS/MS analysis; format: ADME, organism-based; settings: in vivo
[18] = Cytotoxicity against human HK-2 cells assessed as inhibition of cell growth incubated for 72 hrs by CCK-8 assay; format: toxicity, cell-based
Escherichia coli [19] = assay: Potentiation of rifampicin induced antibacterial activity in Escherichia coli ATCC 25922 assessed as rifampicin MIC at 0.008 ug/ml incubated for 18 to 24 hrs by broth microdilution method (reference value: 2 ug/ml); format: functional; settings: dose 0.008 µg/ml, time 18-24 hrs
Escherichia coli [20] = assay: Potentiation of rifampicin induced antibacterial activity in Escherichia coli ATCC 25922 assessed as rifampicin MIC at 0.06 ug/ml incubated for 18 to 24 hrs by broth microdilution method (reference value: 2 ug/ml); format: functional; settings: dose 0.06 µg/ml, time 18-24 hrs
Staphylococcus aureus [21] = assay: Antibacterial activity against methicillin resistant Staphylococcus aureus ATCC 33591 assessed as inhibition of bacterial growth incubated for 18 to 24 hrs by broth microdilution method; format: functional; settings: time 18-24 hrs
Escherichia coli [22] = assay: Bactericidal activity against Escherichia coli ATCC BAA-2523 assessed as reduction in bacterial count at 4 times MIC measured after 2 hrs by time-kill assay; format: functional, organism-based
Escherichia coli [23] = assay: Potentiation of rifampicin induced antibacterial activity in Escherichia coli ATCC 25922 assessed as rifampicin MIC at 0.03 ug/ml incubated for 18 to 24 hrs by broth microdilution method (reference value: 2 ug/ml); format: functional; settings: dose 0.03 µg/ml, time 18-24 hrs
[24] = Acute toxicity in ICR mouse assessed as animal death at 16 mg/kg, iv administered into tail vein and measured after 0.5 to 1 mins; format: organism-based; settings: in vivo, time 0.5-1 min
Escherichia coli [25] = assay: Antibacterial activity against Escherichia coli ATCC BAA-2523 infected in ICR mouse assessed as mouse survival at 4 to 8 mg/kg, iv administered into tail vein and measured daily for 7 days; format: functional, organism-based; settings: dose 4-8 mg/kg, time 7.0 day
[26] = Selectivity index, ratio of IC50 for cytotoxicity against human HK-2 cells to MIC for antibacterial activity against Escherichia coli ATCC BAA-2523; format: toxicity, cell-based
[27] = AUC (0 to infinity) in overnight fasted Sprague-Dawley rat at 4 mg/kg, ip measured for 24 hrs by LC-MS/MS analysis; format: ADME, organism-based; set-up: dose 4 mg/kg, time 24 hrs, route ip; settings: in vivo
Cell membrane = assay: Induction of outer membrane permeabilization in Escherichia coli ATCC 25922 assessed as increase in fluorescence at 1 to 16 ug/ml measured after 3 mins by NPN-dye based assay; format: subcellular; settings: dose 1-16 µg/ml
Escherichia coli [28] = assay: Bactericidal activity against Escherichia coli ATCC BAA-2523 assessed as reduction in bacterial count at 0.5 to 2 times MIC measured after 2 to 24 hrs by time-kill assay; format: functional, organism-based; settings: time 2-24 hrs
Escherichia coli [29] = assay: Antibacterial activity against KPC producing Escherichia coli ATCC BAA-2340 assessed as inhibition of bacterial growth incubated for 18 to 24 hrs by broth microdilution method; format: functional; settings: time 18-24 hrs
Escherichia coli [30] = assay: Antibacterial activity against Escherichia coli clinical isolate 19-2 assessed as inhibition of bacterial growth incubated for 18 to 24 hrs by broth microdilution method; format: functional; settings: time 18-24 hrs
Pseudomonas aeruginosa [31] = assay: Antibacterial activity against carbapenem resistant Pseudomonas aeruginosa clinical isolate 17-1 assessed as inhibition of bacterial growth incubated for 18 to 24 hrs by broth microdilution method; format: functional; settings: time 18-24 hrs

Compound: CCCCCCC[C@@H](O)CC(=O)N[C@H](CCN)C(=O)N[C@H]1CCNC(=O)[C@H]([C@@H](C)O)NC(=O)[C@H](CCN)NC(=O)[C@H](CCN)NC(=O)[C@H]([C@@H](C)O)NC(=O)[C@@H](Cc2ccccc2)NC(=O)[C@H](CCN)NC1=O
- MIC (Escherichia coli [1]): 0.125 mg/L
- MIC (Staphylococcus aureus [2]): > 64 mg/L
- Kd (Lipopolysaccharide (LPS) [3]): 0.48 µM
- MIC (Escherichia coli [4]): ≤ 0.06 mg/L
- Activity (Lipopolysaccharide (LPS) [5]): Dose-Dependent Effect
- MIC (Escherichia coli [6]): 4 mg/L (≈ 3.92 µM)
- MIC (Klebsiella pneumoniae): 8 mg/L (≈ 7.84 µM)
- Activity [7]: Non-Toxic
- fraction unbound at 6 h, 2 µM [8]: 0.147
- MIC (Escherichia coli [9]): 0.5 mg/L
- MIC (Pseudomonas aeruginosa [10]): 0.5 mg/L (≈ 0.49 µM)
- MIC (Escherichia coli [11]): ≤ 0.06 mg/L
- MIC [12]: 64 mg/L (≈ 62.7 µM)
- CL/F [13]: 0.228 L/h/kg
- MIC (Escherichia coli [14]): ≤ 0.06 mg/L
- MIC [15]: > 64 mg/L
- MIC (Escherichia coli [16]): ≤ 0.06 mg/L
- half-life [17]: 3.7 h
- IC50 at 72 h [18]: 414 mg/L (≈ 406 µM)
- MIC (Escherichia coli [19]): 0.5 mg/L
- MIC (Escherichia coli [20]): ≤ 0.06 mg/L
- MIC (Staphylococcus aureus [21]): > 64 mg/L
- Activity (Escherichia coli [22]): Active
- MIC (Escherichia coli [23]): ≤ 0.06 mg/L
- Activity [24]: Toxic
- Activity (Escherichia coli [25]): Active
- selectivity ratio [26]: 828
- AUC(0-inf) [27]: 17.6 µg·h/mL
- Activity (Cell membrane): Active
- Activity (Escherichia coli [28]): inactive
- MIC (Escherichia coli [29]): 1 mg/L (≈ 0.98 µM)
- MIC (Escherichia coli [30]): 1 mg/L (≈ 0.98 µM)
- MIC (Pseudomonas aeruginosa [31]): 0.5 mg/L (≈ 0.49 µM)
